Source: patent publication US8138168B1 (Takeda Pharmaceutical Company Limited, priority 2007, dated 2012)

The compounds below were run against T1, Recombinant human renin (Homo sapiens, UniProt P00797) (assay: In vitro enzymatic activity assay of renin inhibitors (fluorogenic peptide substrate)). Conditions: not given.
T1 construct: isolate the active form (residues 67-406); made in house; host or cells: FreeStyle 293-F cells (transient expression of pcDNA3.1(+)/hREN)
T1 sequence (P00797 67-406): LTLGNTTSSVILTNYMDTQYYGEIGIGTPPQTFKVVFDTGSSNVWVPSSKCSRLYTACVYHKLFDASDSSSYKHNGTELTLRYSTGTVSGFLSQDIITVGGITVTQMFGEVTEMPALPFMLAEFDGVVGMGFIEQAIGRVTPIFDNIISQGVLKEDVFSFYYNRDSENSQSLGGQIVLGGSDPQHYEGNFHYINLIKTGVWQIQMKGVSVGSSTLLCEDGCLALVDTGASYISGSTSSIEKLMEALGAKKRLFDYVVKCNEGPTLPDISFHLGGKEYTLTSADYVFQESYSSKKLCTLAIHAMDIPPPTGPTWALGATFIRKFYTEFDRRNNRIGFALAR
Assay type: biochemical
Outline: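 Recombinant human renin (3 nM final) pre-incubated 10 min at 37 °C with compounds in pH 7.4 Hepes/EDTA/DTT/0.1 mg/mL BSA/Brij35 buffer (optionally plus 2% BSA), 5% DMSO final; fluorogenic QXL520/HiLyteFluo488 peptide substrate added.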
`COCCCn1c([C@@H]2CCCN(C(=O)[C@@H]3CN(C(=O)Oc4cccc(C(F)(F)F)c4)C[C@H]3N)C2)nc2ccccc21` [Compound 408, (3S,4R)-3-(trifluoromethyl)phenyl 3-amino-4-((R)-3-(1-(3-methoxypropyl)-1H-benzo[d]imidazol-2-yl)piperidine-1-carbonyl)pyrrolidine-1-carboxylate] was tested, and the IC50 was greater than 1 µM.

Same assay, conditions: read-out: IC50 of Exemplified Compounds Against Renin
In the case of `COCCCn1c([C@@H]2CCCN(C(=O)C[C@H](N)Cc3ccc(-c4ccc(NC(=O)C(C)(C)O)cc4)cc3)C2)nc2ccccc21` [Compound 199, N-(4′-((R)-2-amino-4-((R)-3-(1-(3-methoxypropyl)-1H-benzo[d]imidazol-2-yl)piperidin-1-yl)-4-oxobutyl)biphenyl-4-yl)-2-hydroxy-2-methylpropanamide], the IC50 is reported as less than 0.1 µM. `COCCCn1c([C@@H]2CCCN(C(=O)C[C@H](N)CNC(=O)Nc3ccccc3SC)C2)nc2ccccc21` [Compound 284, 1-((S)-2-amino-4-((R)-3-(1-(3-methoxypropyl)-1H-benzo[d]imidazol-2-yl)piperidin-1-yl)-4-oxobutyl)-3-(2-(methylthio)phenyl)urea] was tested, and the IC50 was 0.1 to 1 µM. With `COCCCn1c([C@@H]2CCCN(C(=O)C[C@H](N)Cc3ccc(-c4ccc5c(c4)CCO5)cc3)C2)nc2c(C)cccc21` [Compound 493, (R)-3-amino-4-(4-(2,3-dihydrobenzofuran-5-yl)phenyl)-l-((R)-3-(1-(3-methoxypropyl)-4-methyl-1H-benzo[d]imidazol-2-yl)piperidin-1-yl)butan-1-one] the IC50 was less than 0.1 µM. `COCCCn1c([C@@H]2CCCN(C(=O)C[C@H](N)Cc3ccc(-c4ccc(O)nc4)cc3)C2)nc2c(F)cccc21` [Compound 451, (R)-3-amino-1-((R)-3-(4-fluoro-1-(3-methoxypropyl)-1H-benzo[d]imidazol-2-yl)piperidin-1-yl)-4-(4-(6-hydroxypyridin-3-yl)phenyl)butan-1-one] showed an IC50 of less than 0.1 µM. For `COCCCn1c([C@@H]2CCCN(C(=O)C[C@H](N)Cc3ccc4ccccc4c3)C2)nc2c(C)cccc21` [Compound 106, (R)-3-Amino-1-((R)-3-(1-(3-methoxypropyl)-4-methyl-1H-benzo[d]imidazol-2-yl)piperidin-1-yl)-4-(naphthalen-2-yl)butan-1-one], the IC50 was less than 0.1 µM. In the case of `COCCCn1c([C@@H]2CCCN(C(=O)C[C@H](N)CNC(=O)c3ccccc3OC)C2)nc2ccccc21` [Compound 327, N-((S)-2-amino-4-((R)-3-(1-(3-methoxypropyl)-1H-benzo[d]imidazol-2-yl)piperidin-1-yl)-4-oxobutyl)-2-methoxybenzamide], the IC50 is reported as greater than 1 µM. For `COCCCn1c([C@@H]2CCCN(C(=O)C[C@H](N)Cc3ccc(-n4c(=O)[nH]c5ccccc54)cc3)C2)nc2ccccc21` [Compound 212], the IC50 was less than 0.1 µM. With `COCCCn1c([C@@H]2CCCN(C(=O)[C@@H]3CN(S(=O)(=O)c4cccc(-c5csc(C)n5)c4)C[C@H]3N)C2)nc2ccccc21` [Compound 364, ((3R,4S)-4-amino-1-(3-(2-methylthiazol-4-yl)phenylsulfonyl)pyrrolidin-3-yl)((R)-3-(1-(3-methoxypropyl)-1H-benzo[d]imidazol-2-yl)piperidin-1-yl)methanone] the IC50 was 0.1 to 1 µM. `COCCCn1c([C@@H]2CCCN(C(=O)C[C@H](N)Cc3ccc(-n4c(=O)n(CCO)c5ccccc54)cc3)C2)nc2ccccc21` [Compound 222, 1-(4-((R)-2-amino-4-((R)-3-(1-(3-methoxypropyl)-1H-benzo[d]imidazol-2-yl)piperidin-1-yl)-4-oxobutyl)phenyl)-3-(2-hydroxyethyl)-1H-benzo[d]imidazol-2(3H)-one] was tested, and the IC50 was less than 0.1 µM. In the case of `COCCCn1c([C@@H]2CCCN(C(=O)C[C@H](N)CNC(=O)c3ccc(-c4ccc(F)cc4)o3)C2)nc2ccccc21` [Compound 304, N-((S)-2-amino-4-((R)-3-(1-(3-methoxypropyl)-1H-benzo[d]imidazol-2-yl)piperidin-1-yl)-4-oxobutyl)-5-(4-fluorophenyl)furan-2-carboxamide], the IC50 is reported as 0.1 to 1 µM. Compound `COCCCn1c([C@@H]2CCCN(C(=O)C[C@H](N)CNS(=O)(=O)c3c(Cl)cccc3Cl)C2)nc2ccccc21` [Compound 290, N-((S)-2-amino-4-((R)-3-(1-(3-methoxypropyl)-1H-benzo[d]imidazol-2-yl)piperidin-1-yl)-4-oxobutyl)-2,6-dichlorobenzenesulfonamide] has an IC50 of 0.1 to 1 µM. Compound `CNC(=O)CCn1c([C@@H]2CCCN(C(=O)C[C@H](N)Cc3ccc(-c4ccc5c(c4)CCO5)cc3)C2)nc2c(C)cccc21` [Compound 501, 3-(2-((R)-1-((R)-3-amino-4-(4-(2,3-dihydrobenzofuran-5-yl)phenyl)butanoyl)piperidin-3-yl)-4-methyl-1H-benzo[d]imidazol-1-yl)-N-methylpropanamide] has an IC50 of 0.1 to 1 µM. Work on `N[C@@H](CCl)C(=O)N1CCCC(c2nc3ccccc3[nH]2)C1` (stereo partly drawn) [Compound 60, (2R)-1-(3-(1H-benzo[d]imidazol-2-yl)piperidin-1-yl)-2-amino-3-chloropropan-1-one] yielded an IC50 greater than 1 µM. In the case of `COCCCn1c([C@@H]2CCCN(C(=O)C[C@H](N)Cc3ccc(-c4cnccc4OC)cc3)C2)nc2ccccc21` [Compound 162, (R)-3-Amino-1-((R)-3-(1-(3-methoxypropyl)-1H-benzo[d]imidazol-2-yl)piperidin-1-yl)-4-(4-(4-methoxypyridin-3-yl)phenyl)butan-1-one], the IC50 is reported as less than 0.1 µM. Work on `COCCCn1c([C@@H]2CCCN(C(=O)[C@@H]3CN(S(=O)(=O)c4ccc(Cl)cc4Cl)C[C@H]3N)C2)nc2ccccc21` [Compound 350, ((3R,4S)-4-amino-1-(2,4-dichlorophenylsulfonyl)pyrrolidin-3-yl)((R)-3-(1-(3-methoxypropyl)-1H-benzo[d]imidazol-2-yl)piperidin-1-yl)methanone] yielded an IC50 of 0.1 to 1 µM. For `CCOC(=O)c1ccc(-c2ccc(C(=O)NC[C@@H](N)CC(=O)N3CCC[C@@H](c4nc5ccccc5n4CCCOC)C3)o2)cc1` [Compound 294, ethyl 4-(5-((S)-2-amino-4-((R)-3-(1-(3-methoxypropyl)-1H-benzo[d]imidazol-2-yl)piperidin-1-yl)-4-oxobutylcarbamoyl)furan-2-yl)benzoate], the IC50 was 0.1 to 1 µM. `COCCCn1c([C@@H]2CCCN(C(=O)C[C@H](N)CNC(=O)c3ccc(-c4cc(Cl)cc(Cl)c4)o3)C2)nc2ccccc21` [Compound 295, N-((S)-2-amino-4-((R)-3-(1-(3-methoxypropyl)-1H-benzo[d]imidazol-2-yl)piperidin-1-yl)-4-oxobutyl)-5-(3,5-dichlorophenyl)furan-2-carboxamide] gave an IC50 of 0.1 to 1 µM. Compound `COCCCn1c([C@@H]2CCCN(C(=O)C[C@H](N)Cc3ccc(-c4ccc(N)cc4)cc3)C2)nc2ccccc21` [Compound 170, (R)-3-Amino-4-(4′-aminobiphenyl-4-yl)-1-((R)-3-(1-(3-methoxypropyl)-1H-benzo[d]imidazol-2-yl)piperidin-1-yl)butan-1-one] has an IC50 of less than 0.1 µM. With `COCCCn1c([C@@H]2CCCN(C(=O)C[C@H](N)Cc3ccc(N4CCN(c5ccccc5)CC4)cc3)C2)nc2ccccc21` [Compound 231, (R)-3-amino-1((R)-3-(1-(3-methoxypropyl)-1H-benzo[d]imidazol-2-yl)piperidin-1-yl)-4-(4-(4-phenylpiperazin-1-yl)phenyl)butan-1-one] the IC50 was 0.1 to 1 µM. For `COCCCn1c([C@@H]2CCCN(C(=O)C[C@H](N)Cc3ccc(N4CCN(C(C)=O)CC4)cc3)C2)nc2ccccc21` [Compound 232, (R)-4-(4-(4-acetylpiperazin-1-yl)phenyl)-3-amino-1-((R)-3-(1-(3-methoxypropyl)-1H-benzo[d]imidazol-2-yl)piperidin-1-yl)butan-1-one], the IC50 was 0.1 to 1 µM. Compound `COCCCn1c([C@@H]2CCCN(C(=O)C[C@H](N)CNC(=O)c3ccc(-c4cccs4)cc3)C2)nc2ccccc21` [Compound 259, N-((S)-2-amino-4-((R)-3-(1-(3-methoxypropyl)-1H-benzo[d]imidazol-2-yl)piperidin-1-yl)-4-oxobutyl)-4-(thiophen-2-yl)benzamide] has an IC50 of less than 0.1 µM. Compound `COCCCn1c([C@@H]2CCCN(C(=O)[C@@H]3CN(S(=O)(=O)c4c(F)cccc4F)C[C@H]3N)C2)nc2ccccc21` [Compound 426, ((3R,4S)-4-amino-1-(2,6-difluorophenylsulfonyl)pyrrolidin-3-yl)((R)-3-(1-(3-methoxypropyl)-1H-benzo[d]imidazol-2-yl)piperidin-1-yl)methanone] has an IC50 of 0.1 to 1 µM. Work on `COCCCn1c([C@@H]2CCCN(C(=O)C[C@H](N)CNS(=O)(=O)c3ccc(OC)cc3)C2)nc2ccccc21` [Compound 321, N-((S)-2-amino-4-((R)-3-(1-(3-methoxypropyl)-1H-benzo[d]imidazol-2-yl)piperidin-1-yl)-4-oxobutyl)-4-methoxybenzenesulfonamide] yielded an IC50 of 0.1 to 1 µM. `COCCCn1c([C@@H]2CCCN(C(=O)C[C@H](N)Cc3ccc(-c4ccc(-n5c(C)n[nH]c5=O)cc4)cc3)C2)nc2ccccc21` [Compound 206, 4-(4′-((R)-2-amino-4-((R)-3-(1-(3-methoxypropyl)-1H-benzo[d]imidazol-2-yl)piperidin-1-yl)-4-oxobutyl)biphenyl-4-yl)-3-methyl-1H-1,2,4-triazol-5(4H)-one] gave an IC50 of less than 0.1 µM. `COCCCn1c([C@@H]2CCCN(C(=O)C[C@H](N)CNC(=O)c3cccc(C(=O)OC)c3)C2)nc2ccccc21` [Compound 282, methyl 3-((S)-2-amino-4-((R)-3-(1-(3-methoxypropyl)-1H-benzo[d]imidazol-2-yl)piperidin-1-yl)-4-oxobutylcarbamoyl)benzoate] showed an IC50 of 0.1 to 1 µM.
